Series [1] concerns secondary AML patient sample cells. The series can be described thus: Drug transport (CsA modulation of uptake) in secondary AML patient cells. The format is cell-based, human. Conditions: for increase of uptake by Cyclosporin A, mean value: 22 secondary AML samples; for CsA Modulation of Uptake: D-value; for number of patient samples with uptake increased by ≧10% by Cyclosporin A: of 22 secondary AML samples.
Method: The expression and function of Pgp, MRP-1 and BCRP was measured in cells collected from patients with secondary AML. Pgp, MRP-1 and BCRP expression was measured by flow cytometry with the MRK16, MRPm6 and BXP21 antibodies, and function by modulation of uptake of the fluorescent substrates DiOC2(3), rhodamine-123 and pheophorbide A by PSC-833, MK571 and FTC, respectively, all measured by the Kolmogorov-Smirnov statistic, generating D-values.

Series [2] concerns HL60 (human promyelocytic leukemia) cells. Description: WST-1 cell proliferation assay, HL60. The series is classed as cell-based. A general note: Tetrazolium dyes change colour on reduction, which living cells bring about.
Method: (§1) The HL60NCR resistant cell line has been characterized with over-expression of the multidrug resistant protein (MDR; p-glycoprotein). The over-expression ratio (level of MDR in resistant cell line over level of MDR in the parental cell line) is 8 fold with a 10 fold increase in pgp function. Pgp surface expression was measured by flow cytometry with the MRK16 antibody and Pgp function with the generic substrate, Rh123.
(§2) WST-1 is a water-soluble tetrazolium salt that can be used for cell proliferation or cell viability assays. The rate of WST-1 cleavage by mitochondrial dehydrogenases correlates with the number of viable cells in the culture. WST-1 is added directly to the cells ( 1/10th of the culture volume) and absorbance at 450 nm can be measured using an ELISA plate reader following a short incubation at 37° C.
Series [3] relates to pretreatment secondary AML patient cells. The series can be described thus: Amonafide and daunorubicin efflux in cryopreserved cells of patients treated with amonafide+cytarabine. The series is classed as cell-based, human. Conditions: cells from 15 patients treated with amonafide+cytarabine. On the procedure:
Cryopreserved cells were tested for viability and samples with viabilities less than 40% were considered inevaluable and discarded.
To measure drug uptake, the substrates were incubated with cells in medium containing each drug alone, or in combination with the modulator at the desired final concentrations. Cells were then washed and resuspended in PBS, and placed on ice. Drug-associated fluorescence was measured by flow cytometry using a FacScan flow cytometer (Becton Dickinson Immunocytometry Systems, San Jose, Calif.) equipped in standard fashion with an Argon laser for 488 nm excitation and a 585/42 band-pass filter (FL2) or a 670 long-pass (FL3) filter for emission collection. Data were analyzed with WinList software (Verity Software House, Topsham, Me.).

The subject of series [4] is 8226/MR20, a cell line selected for resistance to mitoxantrone (BCRP). Description: WST-1 cell proliferation assay, 8226/MR20. Conditions: 8226/MR20 vs 8226.
Method: The 8226/MR20 resistant cell line has been characterized with over-expression of the multidrug resistant protein (BCRP).
BCRP surface expression was measured by flow cytometry with the BXP21 antibody.
as §2
Series [5] relates to HL60/VCR (HL60/MDR), a cell line selected for resistance to vincristine. The series can be described thus: WST-1 cell proliferation assay, HL60/VCR. Particulars: for IC50: Homo sapiens, HL60/VCR, read-out: IC50 HL60/MDR; for Fold Change in IC50: HL60/MDR vs HL60.
Method: as §1, §2
The test system of series [6] is K562 cells (Pgp negative). The series can be described thus: Functional efflux assay (DiOC2), K562. The series is classed as cell-based, human. Conditions: K562, flow cytometry. Here is the method: The cells were washed with PBS and resuspended in medium. An aliquot was taken for cytometric quantitation of baseline dye uptake. The remaining samples were incubated again either with or without CSA and resuspended in fresh, chilled medium in order to assess dye efflux also by flow cytometric analysis. Functional expression analyses of Pgp were performed on a BD FACSCalibur flow cytometer (Franklin Lakes, N.J.). Cellular amonafide content was measured on the Cytopeia Influx flow cytometer (Seattle, Wash.). Data analysis was performed using the Dako Cytomation Summit software, version 4.0 (Fort Collins, Colo.). […] Differential Pgp staining of anti-Pgp treated cells was compared to that of control cells counted with the same number of gated events. […] These analyses were performed using the NCSS 2007 software (Kaysville, Utah). This approach addresses the maximum difference between two empirical distribution functions.

Series [7] addresses T1, Pgp (Homo sapiens, UniProt P08183). Conditions: human, Caco-2.
From the text: (§3) Both the Caco-2 and MDR1-MDCK cells were used for this model.
The target in series [8] is T1, Pgp. Conditions: human, MDCK-MDR1.
From the text: MDR1-MDCK are Madin Darby Canine Kidney cells transfected with the human multi-drug resistance gene. Confluent monolayers made from these cells can be used to access a test compound's potential role as a P-gp substrate. The assay set up is similar to the CaCo-2 assay.
as §3
Series [9] has as its system IGROV1-T8, a cell line selected for resistance to topotecan (increased BCRP expression). Description: cells. Particulars: Homo sapiens, T8.
Method: (§4) The T8 resistant cell line has been characterized with over-expression of the multidrug resistant protein BCRP (breast cancer resistance protein). Topotecan, which is a known substrate for BCRP, was used as a control.
(§5) Sulforhodamine-B (SRB) assay is performed to assess cell survival. SRB is a water-soluble dye that binds to the basic amino acids of the cellular proteins. Thus, colorimetric measurement of the bound dye provides an estimate of the total protein mass that is related to the cell number. The color can then be quantified using a simple colorimetric assay. The results can be read on a multiwell scanning spectrophotometer (ELISA reader).
Series [10] concerns IGROV1 (human ovarian) cell line. Description: SRB cell proliferation assay, IGROV1. The format is cell-based. Particulars: read-out: IC50.
Method: as §4, §5
Series [11] deals with IGROV1-T8, a cell line selected for resistance to topotecan (increased BCRP expression). Particulars: T8 resistant line vs IGROV1.
Method: as §4, §5
The mark [12] stands for this setting: HL-60, wild-type HL60, WST-1, read-out: IC50 HL60.

These results are taken from patent publication US20100204263A1, “METHOD OF TREATING MULTIDRUG RESISTANT CANCERS” (priority 2007, published 2010).

Read-outs that look alike come from different tables or passages of the source.

T1 sequence (P08183 whole entry): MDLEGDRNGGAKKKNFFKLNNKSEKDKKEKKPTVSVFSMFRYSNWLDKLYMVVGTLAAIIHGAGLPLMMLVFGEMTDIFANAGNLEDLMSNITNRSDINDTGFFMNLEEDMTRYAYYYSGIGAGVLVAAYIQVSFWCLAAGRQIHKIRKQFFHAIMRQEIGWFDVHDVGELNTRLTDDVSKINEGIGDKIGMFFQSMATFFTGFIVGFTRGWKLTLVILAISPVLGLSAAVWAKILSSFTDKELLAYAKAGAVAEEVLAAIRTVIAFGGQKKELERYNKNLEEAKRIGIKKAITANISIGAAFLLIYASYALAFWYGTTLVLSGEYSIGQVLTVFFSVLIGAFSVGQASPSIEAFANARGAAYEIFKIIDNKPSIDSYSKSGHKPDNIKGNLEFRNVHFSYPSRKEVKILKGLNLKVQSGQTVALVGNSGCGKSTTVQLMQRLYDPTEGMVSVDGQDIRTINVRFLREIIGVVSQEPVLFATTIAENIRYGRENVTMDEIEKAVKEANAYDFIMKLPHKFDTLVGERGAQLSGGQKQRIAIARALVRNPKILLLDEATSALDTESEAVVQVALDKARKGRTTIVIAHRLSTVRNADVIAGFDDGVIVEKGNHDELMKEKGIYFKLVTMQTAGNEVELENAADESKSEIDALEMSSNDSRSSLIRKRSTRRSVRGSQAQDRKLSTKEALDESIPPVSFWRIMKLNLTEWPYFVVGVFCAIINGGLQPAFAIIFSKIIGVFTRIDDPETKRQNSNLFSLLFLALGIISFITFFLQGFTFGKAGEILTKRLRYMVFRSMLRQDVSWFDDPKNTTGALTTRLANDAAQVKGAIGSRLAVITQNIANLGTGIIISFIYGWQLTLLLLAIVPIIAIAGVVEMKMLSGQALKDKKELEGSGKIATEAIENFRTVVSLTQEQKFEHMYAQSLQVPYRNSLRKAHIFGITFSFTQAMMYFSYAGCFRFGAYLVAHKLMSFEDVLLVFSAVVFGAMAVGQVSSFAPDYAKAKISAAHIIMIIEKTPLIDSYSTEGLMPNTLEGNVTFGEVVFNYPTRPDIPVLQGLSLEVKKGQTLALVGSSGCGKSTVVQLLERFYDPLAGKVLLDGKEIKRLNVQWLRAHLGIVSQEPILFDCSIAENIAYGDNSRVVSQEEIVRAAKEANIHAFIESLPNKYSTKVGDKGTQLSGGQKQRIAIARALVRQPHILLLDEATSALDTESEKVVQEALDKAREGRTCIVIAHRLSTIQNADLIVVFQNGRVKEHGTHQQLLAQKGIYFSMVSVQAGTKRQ

For `COc1cccc2c1C(=O)c1c(O)c3c(c(O)c1C2=O)C[C@@](O)(C(C)=O)C[C@@H]3O[C@H]1C[C@H](N)[C@H](O)[C@H](C)O1` [Daunorubicin, daunorubicin], in series [1], the “increase of uptake by Cyclosporin A, mean value” (“increase of uptake” for short) is 19.7%. In addition, the “CsA Modulation of Uptake” value in series [1] (Pt 1) is reported as 0.2; in series [1] (Pt 2) it was 0.14; in series [1] (Pt 3), 0.27; in series [1] (Pt 4), 0.23; in [1] (Pt 5), 0; in series [1] (Pt 6) it was 0.41. Also, the “CsA Modulation of Uptake” value in series [1] (Pt 7) turned out to be 0.47; in series [1] (Pt 8), 0.31; in series [1] (Pt 9), 0.08; in [1] (Pt 10) it was 0.08; in series [1] (Pt 11) it was 0.03; in series [1] (Pt 12) it was 0.37. Also, the “CsA Modulation of Uptake” value in [1] (Pt 13) is recorded as 0.16; in [1] (Pt 14), 0.29; in [1] (Pt 15) it was 0.07; in series [1] (Pt 16), 0.08; in series [1] (Pt 17), 0.24; in [1] (Pt 18) it was 0.03. For the same compound, the “CsA Modulation of Uptake” value in series [1] (Pt 19) is reported as 0.04; in series [1] (Pt 20), 0.35; in series [1] (Pt 21), 0.12; in series [1] (Pt 22) it was 0.43. The “number of patient samples with uptake increased by ≧10% by Cyclosporin A” value in series [1] is given as 16 patient samples. The IC50 in [2] (HL-60, read-out: IC50 HL60) was 0.015 µM; in series [5], 0.092 µM. In addition, in series [3], the “drug efflux in relation to clinical response (CR vs non-CR)” value is reported as “negatively correlated with response”. For the same compound, the “loss of potency in the BCRP line” value in series [4] is “½”. In addition, in [5] (HL60/VCR vs HL60), the “loss of potency in the Pgp+ line” value was 2 log units.

For `CCN1/C(=C/C=C/c2oc3ccccc3[n+]2CC)Oc2ccccc21.[I-]` [DiOC2], the DiOC2 accumulation result in series [6] is “accumulated in Pgp negative K562 cells”.

Take `C[C@H]1O[C@@H](O[C@H]2[C@@H](O)C[C@H](O[C@H]3[C@@H](O)C[C@H](O[C@H]4CC[C@@]5(C)[C@H](CC[C@@H]6[C@@H]5C[C@@H](O)[C@]5(C)[C@@H](C7=CC(=O)OC7)CC[C@]65O)C4)O[C@@H]3C)O[C@@H]2C)C[C@H](O)[C@@H]1O` [Digoxin, digoxin]: the “Digoxin Efflux (efflux/influx ratio), Caco-2” value at Pgp [7] is on record as 10.6 ± 1.4. In addition, the “Digoxin Efflux (efflux/influx ratio), MDR1-MDCK” value at Pgp [8] is 70 + 11.

In the case of `COc1cccc2c1C(=O)c1c(O)c3c(c(O)c1C2=O)C[C@@](O)(C(=O)CO)C[C@@H]3O[C@H]1C[C@H](N)[C@H](O)[C@H](C)O1` [Doxorubicin, doxorubicin], the IC50 in [2] (setting [12]) was 0.033 µM. Also, in series [5], the “Fold Change in IC50” value was determined as 4.87 and the IC50 is 0.161 µM.

On to `CC(=O)[C@]1(O)Cc2c(O)c3c(c(O)c2[C@@H](O[C@H]2C[C@H](N)[C@H](O)[C@H](C)O2)C1)C(=O)c1ccccc1C3=O` [Idarubicin, idarubicin], for which the “increase of uptake” value in [1] worked out at 7%. Besides, the “CsA Modulation of Uptake” value in series [1] (Pt 1) stood at 0; in series [1] (Pt 2) it was 0.23; in series [1] (Pt 3), 0.22; in series [1] (Pt 4), 0.17; in [1] (Pt 5), 0; in series [1] (Pt 6) it was 0.21. Further, the “CsA Modulation of Uptake” value is 0.21 in [1] (Pt 7); 0.16 in series [1] (Pt 8); 0.18 in series [1] (Pt 9); 0.02 in series [1] (Pt 10); 0.05 in series [1] (Pt 11); 0.08 in series [1] (Pt 12). Also, the “CsA Modulation of Uptake” value was 0.06 in [1] (Pt 13); 0.28 in series [1] (Pt 14); 0.16 in series [1] (Pt 15); 0.03 in [1] (Pt 16); 0 in [1] (Pt 17); 0 in series [1] (Pt 18). For the same compound, the “CsA Modulation of Uptake” value in series [1] (Pt 19) was 0.17; in series [1] (Pt 20) it was 0.23; in series [1] (Pt 21), 0.19; in series [1] (Pt 22) it was 0.31. Besides, in series [1], the “number of patient samples with uptake increased by ≧10% by Cyclosporin A” value is recorded as 12 patient samples.

As for `O=C1c2c(O)ccc(O)c2C(=O)c2c(NCCNCCO)ccc(NCCNCCO)c21` [Mitoxantrone, mitoxantrone], the IC50 in [2] (setting [12]) was 0.008 µM. Also, in series [5], the “Fold Change in IC50” value amounted to 390.7 and the IC50 came out at 3.11 µM.

Consider `CO[C@@H]1[C@H](N(C)C(=O)c2ccccc2)C[C@H]2O[C@]1(C)n1c3ccccc3c3c4c(c5c6ccccc6n2c5c31)C(=O)NC4` [PKC412], for which the “Digoxin Efflux (efflux/influx ratio), Caco-2” value at Pgp [7] was 1.8 ± 1.3. Further, the “Digoxin Efflux (efflux/influx ratio), MDR1-MDCK” value at Pgp [8] is recorded as 6.4 ± 0.8.

As for `CC[C@@]1(O)C(=O)OCc2c1cc1n(c2=O)Cc2cc3c(CN(C)C)c(O)ccc3nc2-1` [TPT, Topotecan], the IC50 was 1.1 µM in [9] (experiment (1)); 1.09 µM in series [9] (experiment (2)); 0.036 µM in series [10] (IGROV-1, IGROV1, experiment (1)); 0.0739 µM in series [10] (IGROV-1, IGROV1, experiment (2)). Besides, in series [11], the “resistance of T8 line to Topotecan relative to Amonafide” value is recorded as 10 fold.

Take amonafide L-malate: the “increase of uptake” value in [1] is given as −2.5%. The “CsA Modulation of Uptake” value in [1] (Pt 1) came out at 0; in [1] (Pt 2), 0.09; in [1] (Pt 3), 0; in series [1] (Pt 4), 0.02; in [1] (Pt 5) it was 0; in [1] (Pt 6) it was 0.1. The “CsA Modulation of Uptake” value turned out to be 0.31 in series [1] (Pt 7); 0.07 in series [1] (Pt 8); 0 in series [1] (Pt 9); 0.18 in [1] (Pt 10); 0 in series [1] (Pt 11); 0 in series [1] (Pt 12). Besides, the “CsA Modulation of Uptake” value in [1] (Pt 13) turned out to be 0.03; in series [1] (Pt 14), 0.05; in series [1] (Pt 15), 0; in series [1] (Pt 16), 0; in [1] (Pt 17) it was 0; in series [1] (Pt 18), 0. In addition, the “CsA Modulation of Uptake” value is reported as 0 in [1] (Pt 19), 0.15 in [1] (Pt 20), 0.43 in [1] (Pt 21) and 0 in series [1] (Pt 22). For the same compound, in series [1] (in relation to other topoisomerase 2 inhibitors), the “substrate status for the MDR proteins expressed in AML cells” value is on record as “poor substrate”. In series [1], the “number of patient samples with uptake increased by ≧10% by Cyclosporin A” value is reported as 5 patient samples.
